Assay results: ChEMBL document CHEMBL1201862, “PubChem BioAssay data set” (2004)
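48-hour exposure; five concentrations; linearly interpolated endpoints. GI50 is the concentration that inhibits growth by half.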 The source made the active and inactive calls. Rule as the data show it: active = GI50 up to about 1.1 µM and inactive = higher.

Experiments:
Experiment in all cases: inhibition of tumour cell growth, NCI panel, 48 h
MDA-MB-231 = system: MDA-MB-231
HCT-116 = system: HCT-116
LOX IMVI = system: LOX IMVI
NCI-H23 = system: NCI-H23
BT-549 = system: BT-549
NCI/ADR-RES = system: NCI/ADR-RES
MOLT-4 = system: MOLT-4
SF-295 = system: SF-295
COLO 205 = system: COLO 205
M14 = system: M14
HL-60 = system: HL-60
CAKI-1 = system: CAKI-1
UACC-62 = system: UACC-62
UACC-257 = system: UACC-257
MDA-MB-435 = system: MDA-MB-435
OVCAR-8 = system: OVCAR-8
786-0 = system: 786-0
SK-MEL-5 = system: SK-MEL-5
HT-29 = system: HT-29
RPMI-8226 = system: RPMI-8226
Hs-578T = system: Hs-578T
CCRF-CEM = system: CCRF-CEM
NCI-H226 = system: NCI-H226
K562 = system: K562
SK-OV-3 = system: SK-OV-3
HOP-62 = system: HOP-62
RXF 393 = system: RXF 393
SR = system: SR
UO-31 = system: UO-31
HOP-92 = system: HOP-92
SNB-75 = system: SNB-75
KM12 = system: KM12
SNB-19 = system: SNB-19
NCI-H460 = system: NCI-H460
OVCAR-4 = system: OVCAR-4
EKVX = system: EKVX
HCT-15 = system: HCT-15
TK-10 = system: TK-10
IGROV-1 = system: IGROV-1
HCC 2998 = system: HCC 2998
ACHN = system: ACHN
SF-268 = system: SF-268
PC-3 = system: PC-3
A498 = system: A498
U-251 = system: U-251
T47D = system: T47D
MCF7 = system: MCF7
SW-620 = system: SW-620
SF-539 = system: SF-539
DU-145 = system: DU-145
SK-MEL-28 = system: SK-MEL-28
SK-MEL-2 = system: SK-MEL-2
SN12C = system: SN12C
Malme-3M = system: Malme-3M
MDA-N = system: MDA-N
OVCAR-3 = system: OVCAR-3
NCI-H522 = system: NCI-H522
OVCAR-5 = system: OVCAR-5
A549 = system: A549

Measured: GI50

Cc1c(/C=N/NC(=S)Nc2cccc(Cl)c2)c(=O)n(-c2ccccc2)n1C
inactive: MDA-MB-231 17.6 µM | HCT-116 34 µM | LOX IMVI 46.8 µM | NCI-H23 28.7 µM | BT-549 21.4 µM | NCI/ADR-RES 4.35 µM | MOLT-4 31.3 µM | SF-295 10.4 µM | COLO 205 96.6 µM | M14 16.6 µM | HL-60 24 µM | CAKI-1 13 µM | UACC-62 30.7 µM | UACC-257 32.4 µM | MDA-MB-435 > 100 µM | OVCAR-8 14.1 µM | 786-0 18.3 µM | SK-MEL-5 36.1 µM | HT-29 27.9 µM | RPMI-8226 40.9 µM | Hs-578T 13.9 µM | CCRF-CEM 22.6 µM | NCI-H226 13.8 µM | K562 13.8 µM | SK-OV-3 18.2 µM | HOP-62 13.9 µM | RXF 393 15.8 µM | SR 50.1 µM | UO-31 15.3 µM | HOP-92 13.3 µM | SNB-75 15 µM | KM12 18.7 µM | SNB-19 19.1 µM | NCI-H460 9.4 µM | OVCAR-4 16.4 µM | EKVX 6.65 µM | TK-10 16.6 µM | IGROV-1 18.2 µM | HCC 2998 55.6 µM | ACHN 14.7 µM | SF-268 16.4 µM | PC-3 34.6 µM | A498 3.14 µM | U-251 20.7 µM | T47D 30.4 µM | MCF7 24.2 µM | SW-620 51.2 µM | SF-539 17.1 µM | DU-145 24.1 µM | SK-MEL-28 > 100 µM | SK-MEL-2 18.6 µM
3.91 µM: HCT-15

Cn1nc(C(=O)N2CC(CCl)c3c2cc([N+](=O)[O-])c2ccccc32)cc1NC(=O)Nc1cc(C(=O)N2CC(CCl)c3c2cc([N+](=O)[O-])c2ccccc32)nn1C (centres undefined)
active: SF-539 0.0745 µM
> 100 µM: HCT-15
inactive: MDA-MB-231 > 100 µM | HCT-116 > 100 µM | NCI-H23 > 100 µM | BT-549 > 100 µM | NCI/ADR-RES > 100 µM | MOLT-4 > 100 µM | SF-295 94.8 µM | COLO 205 > 100 µM | M14 > 100 µM | CAKI-1 > 100 µM | UACC-62 > 100 µM | UACC-257 > 100 µM | MDA-MB-435 > 100 µM | 786-0 79.6 µM | SN12C > 100 µM | SK-MEL-5 > 100 µM | Malme-3M > 100 µM | RPMI-8226 > 100 µM | NCI-H226 > 100 µM | K562 > 100 µM | MDA-N > 100 µM | SK-OV-3 > 100 µM | HOP-62 32.1 µM | OVCAR-3 > 100 µM | UO-31 > 100 µM | NCI-H522 > 100 µM | HOP-92 > 100 µM | SNB-75 > 100 µM | KM12 > 100 µM | SNB-19 77.4 µM | NCI-H460 > 100 µM | OVCAR-4 > 100 µM | EKVX > 100 µM | OVCAR-5 > 100 µM | TK-10 > 100 µM | HCC 2998 > 100 µM | ACHN > 100 µM | SF-268 48.5 µM | PC-3 > 100 µM | A498 > 100 µM | U-251 68.9 µM | T47D > 100 µM | MCF7 > 100 µM | DU-145 > 100 µM | SK-MEL-28 > 100 µM | A549 > 100 µM | SK-MEL-2 > 100 µM

C/C(=N\Nc1nc2ccccc2o1)c1ccncn1
active: MDA-MB-231 0.169 µM | HCT-116 0.0713 µM | LOX IMVI 0.124 µM | NCI-H23 0.36 µM | NCI/ADR-RES 0.19 µM | MOLT-4 0.0305 µM | SF-295 0.363 µM | COLO 205 0.0427 µM | M14 0.126 µM | HL-60 0.0218 µM | CAKI-1 0.0471 µM | UACC-62 0.28 µM | UACC-257 0.396 µM | MDA-MB-435 0.247 µM | OVCAR-8 0.0929 µM | 786-0 0.0869 µM | SN12C 0.225 µM | SK-MEL-5 0.181 µM | Malme-3M 0.124 µM | HT-29 0.0356 µM | RPMI-8226 0.109 µM | Hs-578T 0.955 µM | CCRF-CEM 0.0481 µM | NCI-H226 0.228 µM | K562 0.0514 µM | SK-OV-3 0.294 µM | HOP-62 0.228 µM | OVCAR-3 0.0524 µM | SR 0.0647 µM | UO-31 0.0479 µM | NCI-H522 0.0419 µM | HOP-92 0.124 µM | SNB-75 0.457 µM | KM12 0.163 µM | SNB-19 0.432 µM | NCI-H460 0.0964 µM | OVCAR-4 0.129 µM | EKVX 0.0526 µM | TK-10 1.12 µM | IGROV-1 0.116 µM | HCC 2998 1.02 µM | ACHN 0.0638 µM | SF-268 0.132 µM | PC-3 0.31 µM | A498 0.45 µM | U-251 0.162 µM | T47D 0.0845 µM | MCF7 0.0556 µM | SW-620 0.0455 µM | SF-539 0.258 µM | SK-MEL-28 0.513 µM | A549 0.24 µM | SK-MEL-2 0.277 µM
inactive: BT-549 5.19 µM | RXF 393 2.29 µM | OVCAR-5 4.36 µM | DU-145 1.26 µM
0.0476 µM: HCT-15
